Counter-ions that a name gives are not always drawn.
molecular target: T1, h-NK1 receptors (Homo sapiens, UniProt P25103); assay: Evaluation of NK1 antagonist transport efficiency to the central nervous system using a h-NK1 receptor binding assay; conditions: 5 min, brain extract of male SD rats 5 min after i.v. injection of test compound, CHO cell membranes expressing h-NK1, read-out: inhibition rate of 125I-BH-Substance P binding to h-NK1 receptors
T1 construct: expressed in transfected cells; host or cells: CHO cells (permanent expression), crude cell membranes
Experimental: A. Evaluation of NK1 Antagonist Transport Efficiency to the Cental Nervous System Using a h-NK1 Receptor Binding Assay
(1) Administration of Test Compound and Extraction of the Compound From Brain
Male SD rats were given an i.v. injection of a solution containing a test compound (1 mg/kg). 5 Min later the animals were anesthetized by ether, bled and perfused through the aorta ascendens with 20 ml of saline. The brain was rapidly removed, weighed and homogenized in 4 vol. ice-cold distilled water by using Polytoron (KINEMATICA). To extract the test compound, 500 μl of the homogenate, 100 μl of methanol, 500 μl of 0.1 N NaOH and 4 ml of ethyl acetate were mixed by shaking for 10 min at room temperature. The organic phase (2.5 ml) was recovered by centrifugation at 3,000 rpm for 10 min, dried and dissolved in dimethyl sulfoxide.
(2) h-NK1 Receptor Binding Assay
(a) Crude CHO Cell Membrane Preparation
CHO cells permanently expressing h-NK1 receptors were harvested and homogenized with a Dounce homogenizer at 4° C. in a buffer (0.25 M sucrose, 25 mM Tris-HCl (pH 7.4), 10 mM MgCl2, 1 mM EDTA, 5 μg/ml p-APMSF). The homogenate was centrifuged (500×g, 10 min), and the pellet was resuspended in the same buffer, homogenized, and centrifuged. The two supernatants were combined and centrifuged (100,000×g, 1 hour). The crude cell membranes thus isolated were resuspended in a buffer (25 MM Tris-HCl (pH 7.4), 10 mM MgCl2, 1 mM EDTA, 5 μg/ml p-APMSF) and stored at −80° C. until use.
(b) ^125I-BH-Substance P Binding to the Prepared Membrane
Cell membranes (6 μg/ml) were incubated with ^125I-BH-Substance P (0.1 nM) with or without the extracted compounds in 0.25 ml of a medium (50 mM Tris-HCl (pH 7.4), 5 mM MnCl2, 20 μg/ml chymrostatin, 40 μg/ml bacitracin, 4 μg/ml leupeptin, 5 μg/ml p-APMSF, 200 μg/ml BSA) at 22° C. for 90 min. At the end of the incubation period, the contents were quickly filtered through a Blue Mat 11740 filter (pretreated with 0.1% polyethylenimine for 3 hours prior to use) by using SKATRON Cell Harvester. The filter was then washed with a washing buffer (50 mM Tris-HCl (pH 7.4), 5 mM MnCl2) . The radioactivity was counted by using an auto gamma counter (Packard RIASTAR 5420A). All data presented are specific binding defined as that displaceable by 3 μM unlabeled Substance P.

T1 sequence (P25103 whole entry): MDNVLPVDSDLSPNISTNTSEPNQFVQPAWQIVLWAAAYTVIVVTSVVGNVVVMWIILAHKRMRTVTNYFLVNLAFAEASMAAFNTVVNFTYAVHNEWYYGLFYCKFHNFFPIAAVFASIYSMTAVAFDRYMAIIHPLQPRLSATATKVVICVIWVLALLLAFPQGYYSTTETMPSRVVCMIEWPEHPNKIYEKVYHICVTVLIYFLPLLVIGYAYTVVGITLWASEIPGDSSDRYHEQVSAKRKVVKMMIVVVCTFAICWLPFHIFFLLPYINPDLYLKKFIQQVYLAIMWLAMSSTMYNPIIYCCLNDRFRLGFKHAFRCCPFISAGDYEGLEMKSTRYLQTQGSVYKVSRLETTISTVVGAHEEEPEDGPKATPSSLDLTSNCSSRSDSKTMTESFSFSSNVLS

Compound	inhibition at 1 mg/kg
Cc1ccc(C[C@@H]2CN(CC#CCN3CCOCC3)CCN2C(=O)c2cc(C(F)(F)F)cc(C(F)(F)F)c2)cc1C.Cl.Cl [37-(2), (2R)-4-(4-Morpholino-2-butynyl)-1-[3,5-bis (trifluoromethyl)benzoyl]-2-(3,4-dimethylbenzyl) piperazine dihydrochloride]	> 80%
CC(=O)c1ccc(CN2CCN(C(=O)c3cc(C(F)(F)F)cc(C(F)(F)F)c3)[C@H](Cc3c[nH]c4ccccc34)C2)cc1.Cl [Example 7, (2R)-4-(4-acetylbenzyl)-1-[3,5-bis(trifluoromethyl)benzoyl]-2-(1H-indol-3-ylmethyl) piperazine hydrochloride]	> 80%
Cc1ccc(C[C@@H]2CN(CCCNN3CCOCC3)CCN2C(=O)c2cc(C(F)(F)F)cc(C(F)(F)F)c2)cc1C [67-(4), (2R)-1-[3,5-Bis(trifluoromethyl)benzoyl]-2-(3,4-dimethylbenzyl)-4-[3-(morpholinoamino)propyl]piperazine dihydrochloride]	> 80%
O=C(c1cc(C(F)(F)F)cc(C(F)(F)F)c1)N1CCN(CCN2CCSCC2)C[C@H]1Cc1ccc2ccccc2c1 [Example 44-(2), (2R)-1-[3,5-Bis(trifluoromethyl)benzoyl]-2-(2-naphthylmethyl)-4-(2-thiomorpholinoethyl) piperazine dihydrochloride]	> 80%
O=C(c1cc(C(F)(F)F)cc(C(F)(F)F)c1)N1CCN(CC#CCN2CCOCC2)C[C@H]1Cc1ccc(Cl)c(Cl)c1 [Example 36, (2R)-1-[3,5-bis(trifluoromethyl)benzoyl]-2-(3,4-dichlorobenzyl)-4-(4-morpholino-2-butynyl) piperazine]	> 80%
O=C(c1cc(C(F)(F)F)cc(C(F)(F)F)c1)N1CCN(CCNCc2cccnc2)C[C@H]1Cc1ccc2ccccc2c1 [82-(7), (2R)-1-[3,5-Bis(trifluoromethyl)benzoyl]-2-(2-naphthylmethyl)-4-[N-(3-pyridylmethyl)-2-aminoethyl]piperazine trihydrochloride]	> 80%
Cc1ccc(C[C@@H]2CN(Cc3cn(C)cn3)CCN2C(=O)c2cc(C(F)(F)F)cc(C(F)(F)F)c2)cc1C [52-(1), (2R)-1-[3,5-Bis(trifluoromethyl)benzoyl]-2-(3,4-dimethylbenzyl)-4-[(1-methyl-1H-imidazol-4-yl)methyl]piperazine dihydrochloride]	> 80%
O=C(c1cc(C(F)(F)F)cc(C(F)(F)F)c1)N1CCN(CCCN2CCc3sccc3C2)C[C@H]1Cc1c[nH]c2ccccc12 [Example 26, (2R)-1-[3,5-Bis(trifluoromethyl)benzoyl]-2-(1H-indol-3-ylmethyl)-4-[3-(4,5,6,7-tetrahydrothieno[3,2-c]pyridin-5-yl)propyl]piperazine]	> 80%
O=C(c1cc(C(F)(F)F)cc(C(F)(F)F)c1)N1CCN(CCNN2CCOCC2)C[C@H]1Cc1ccc2ccccc2c1 [82-(8), (2R)-1-[3,5-Bis(trifluoromethyl)benzoyl]-2-(2-naphthylmethyl)-4-(N-morpholino-2-aminoethyl) piperazine dihydrochloride]	> 80%
O=C(c1cc(C(F)(F)F)cc(C(F)(F)F)c1)N1CCN(CCCNN2CCOCC2)C[C@H]1Cc1ccc2ccccc2c1 [82-(9), (2R)-1-[3,5-Bis(trifluoromethyl)benzoyl]-2-(2-naphthylmethyl)-4-(N-morpholino-3-aminopropyl) piperazine dihydrochloride]	> 80%
O=C(c1cc(C(F)(F)F)cc(C(F)(F)F)c1)N1CCN(CCCN2CCOCC2)C[C@H]1Cc1ccc(Cl)c(Cl)c1 [Example 44-(5), (2R)-1-[3,5-Bis(trifluoromethyl)benzoyl]-2-(3,4-dichlorobenzyl)-4-(3-morpholinopropyl) piperazine dihydrochloride]	> 80%
Cc1ccc(C[C@@H]2CN(CCCNCc3cccnc3)CCN2C(=O)c2cc(C(F)(F)F)cc(C(F)(F)F)c2)cc1C [82-(1), (2R)-1-[3,5-Bis(trifluoromethyl)benzoyl]-2-(3,4-dimethylbenzyl)-4-[N-(3-pyridylmethyl)-3-aminopropyl]piperazine trihydrochloride]	> 80%
O=C(c1cc(C(F)(F)F)cc(C(F)(F)F)c1)N1CCN(CCCNCc2cccnc2)C[C@H]1Cc1ccc2ccccc2c1 [82-(12), (2R)-1-[3,5-Bis(trifluoromethyl)benzoyl]-2-(2-naphthylmethyl)-4-[N-(3-pyridylmethyl)-3-aminopropyl]piperazine trihydrochloride]	> 80%
O=C(c1cc(C(F)(F)F)cc(C(F)(F)F)c1)N1CCN(C/C=C/CNCc2cccnc2)C[C@H]1Cc1ccc2ccccc2c1 [82-(10), (2R)-1-[3,5-Bis(trifluoromethyl)benzoyl]-2-(2-naphthylmethyl)-4-[(E)-N-(3-pyridylmethyl)-4-amino-2-butenyl]piperazine trihydrochloride]	> 80%
O=C(c1cc(C(F)(F)F)cc(C(F)(F)F)c1)N1CCN(CC#CCN2CCOCC2)C[C@H]1Cc1ccc2ccccc2c1 [Example 35, (2R)-1-[3,5-bis(trifluoromethyl)benzoyl]-4-(4-morpholino-2-butynyl)-2-(2-naphthylmethyl) piperazine dihydrochloride]	> 80%

Results, then the molecule that gave them:

inhibition at 1 mg/kg	Compound
> 80%	Cc1ccc(C[C@@H]2CN(CC#CCN3CCOCC3(C)C)CCN2C(=O)c2cc(C(F)(F)F)cc(C(F)(F)F)c2)cc1C.Cl.Cl [Example 59-(3), (2R)-1-[3,5-Bis(trifluoromethyl)benzoyl]-2-(3,4-dimethylbenzyl)-4-[4-(3,3-dimethylmorpholino)-2-butynyl]piperazine dihydrochloride]
> 80%	O=C(c1cc(C(F)(F)F)cc(C(F)(F)F)c1)N1CCN(CCCCCN2CCOCC2)C[C@H]1Cc1c[nH]c2ccccc12 [Example 55, (2R)-1-[3,5-Bis(trifluoromethyl)benzoyl]-2-(1H-indol-3-ylmethyl)-4-(5-morpholinopentyl) piperazine dihydrochloride]
> 80%	O=C(c1cc(C(F)(F)F)cc(C(F)(F)F)c1)N1CCN(CCCN2CCSC2)C[C@H]1Cc1c[nH]c2ccccc12 [Example 44-(7), (2R)-4-[3-(Thiazolidin-3-yl)propyl]-1-[3,5-bis (trifluoromethyl)benzoyl]-2-(1H-indol-3-ylmethyl) piperazine dihydrochloride]
> 80%	Cc1ccc(C[C@@H]2CN(CCNCc3cccnc3)CCN2C(=O)c2cc(C(F)(F)F)cc(C(F)(F)F)c2)cc1C [Example 67-(5), (2R)-1-[3,5-Bis(trifluoromethyl)benzoyl]-2-(3,4-dimethylbenzyl)-4-[2-(3-pyridylmethylamino)ethyl]piperazine trihydrochloride]
> 80%	Cc1ccc(C[C@@H]2CN(CCCN3C[C@@H](C)O[C@@H](C)C3)CCN2C(=O)c2cc(C(F)(F)F)cc(C(F)(F)F)c2)cc1C [Example 81, (2R)-1-[3,5-Bis(trifluoromethyl)benzoyl]-2-(3,4-dimethylbenzyl)-4-[3-(cis-2,6-dimethylmorpholino)propyl]piperazine dihydrochloride]
> 80%	O=C(c1cc(C(F)(F)F)cc(C(F)(F)F)c1)N1CCN(CCCN2CCC(c3ccccc3)CC2)C[C@H]1Cc1c[nH]c2ccccc12 [Example 46, (2R)-1-[3,5-bis(trifluoromethyl)benzoyl]-2-(1H-indol-3-ylmethyl)-4-[3-(4-phenylpiperidino)propyl]piperazine]
> 80%	O=C(c1cc(C(F)(F)F)cc(C(F)(F)F)c1)N1CCN(C/C=C\CN2CCOCC2)C[C@H]1Cc1c[nH]c2ccccc12 [Example 71, (2R) -1-[3,5-bis(trifluoromethyl)benzoyl]-2-(1H-indol-3-ylmethyl)-4-[(Z)-4-morpholino-2-butenyl]piperazine dihydrochloride]
> 80%	Cc1ccc(C[C@@H]2CN(CCCN3CCCOCC3)CCN2C(=O)c2cc(C(F)(F)F)cc(C(F)(F)F)c2)cc1C [Example 67-(7), (2R)-1-[3,5-Bis(trifluoromethyl)benzoyl]-2-(3,4-dimethylbenzyl)-4-(3-homomorpholinopropyl) piperazine dihydrochloride]

test system: not given; assay: not given; conditions: not given

melting point	Compound
155 to 162 °C	Cc1ccc(C[C@@H]2CN(CC#CCN3CCOCC3)CCN2C(=O)c2cc(C(F)(F)F)cc(C(F)(F)F)c2)cc1C.Cl.Cl [37-(2), (2R)-4-(4-Morpholino-2-butynyl)-1-[3,5-bis (trifluoromethyl)benzoyl]-2-(3,4-dimethylbenzyl) piperazine dihydrochloride]
172 °C (dec.)	CC(=O)c1ccc(CN2CCN(C(=O)c3cc(C(F)(F)F)cc(C(F)(F)F)c3)[C@H](Cc3c[nH]c4ccccc34)C2)cc1.Cl [Example 7, (2R)-4-(4-acetylbenzyl)-1-[3,5-bis(trifluoromethyl)benzoyl]-2-(1H-indol-3-ylmethyl) piperazine hydrochloride]
180 to 190 °C	Cc1ccc(C[C@@H]2CN(CC#CCN3CCOCC3(C)C)CCN2C(=O)c2cc(C(F)(F)F)cc(C(F)(F)F)c2)cc1C.Cl.Cl [Example 59-(3), (2R)-1-[3,5-Bis(trifluoromethyl)benzoyl]-2-(3,4-dimethylbenzyl)-4-[4-(3,3-dimethylmorpholino)-2-butynyl]piperazine dihydrochloride]

From patent US20020010182A1, “Piperazine derivatives as tachykinin antagonists” (FUJISAWA PHARMACEUTICAL CO., LTD., priority 1995, published 2002)
